Measurements: patent US11339130B1 (Blade Therapeutics, Inc., priority 2016, dated 2022)
Like-named read-outs stand apart in the source and are kept apart here.

What was measured:
[1] = biological target: T1, Human Calpain 9/NS1 (Homo sapiens, UniProt O14815); assay: Calpain inhibition continuous fluorescence (FRET) assay, Human Calpain 9/NS1; type: biochemical; details: read-out: Human Calpain 9/NS1 IC50
T1 sequence (O14815 1-690): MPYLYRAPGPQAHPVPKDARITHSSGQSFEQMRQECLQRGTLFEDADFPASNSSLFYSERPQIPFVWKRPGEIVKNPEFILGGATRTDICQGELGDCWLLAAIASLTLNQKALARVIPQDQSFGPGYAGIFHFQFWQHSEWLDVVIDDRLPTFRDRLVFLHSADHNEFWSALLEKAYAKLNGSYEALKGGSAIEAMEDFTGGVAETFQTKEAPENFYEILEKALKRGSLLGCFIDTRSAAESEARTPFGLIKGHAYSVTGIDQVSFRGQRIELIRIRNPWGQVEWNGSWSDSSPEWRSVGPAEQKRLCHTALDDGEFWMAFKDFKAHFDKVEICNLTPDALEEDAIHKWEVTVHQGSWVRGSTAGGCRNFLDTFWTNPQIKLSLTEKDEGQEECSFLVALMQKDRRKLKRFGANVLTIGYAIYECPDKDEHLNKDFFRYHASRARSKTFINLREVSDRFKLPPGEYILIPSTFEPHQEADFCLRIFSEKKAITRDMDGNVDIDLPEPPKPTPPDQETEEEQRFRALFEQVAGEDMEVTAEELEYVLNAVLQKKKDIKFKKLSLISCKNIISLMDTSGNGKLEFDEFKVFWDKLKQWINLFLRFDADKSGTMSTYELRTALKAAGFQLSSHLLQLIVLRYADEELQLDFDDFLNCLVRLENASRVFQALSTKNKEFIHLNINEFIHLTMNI
T1 sequence (P04632 1-268 partner): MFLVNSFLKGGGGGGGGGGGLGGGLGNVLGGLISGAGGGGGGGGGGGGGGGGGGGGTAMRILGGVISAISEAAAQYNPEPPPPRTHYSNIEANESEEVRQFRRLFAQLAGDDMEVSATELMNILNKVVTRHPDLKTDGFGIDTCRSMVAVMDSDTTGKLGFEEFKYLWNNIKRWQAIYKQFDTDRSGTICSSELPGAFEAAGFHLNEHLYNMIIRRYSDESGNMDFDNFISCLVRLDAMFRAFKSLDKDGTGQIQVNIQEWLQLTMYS
How it was run: (§1)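 Buffer 50 mM Tris pH 7.5/100 mM NaCl/1 mM DTT; enzyme + cpd preinc 25C; start w/ FRET substrate + CaCl2; kinetic 490/520 nm, 10 min; slopes 1-5 min; 4-PL IC50.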

[2] = test system: Calpain activity in SH-SY5Y cells (SBDP-150); assay: SH-SY5Y Spectrin western blot assay (SBDP-150 breakdown product, A23187-induced); type: cell-based; details: SH-SY5Y cells, read-out: SH-SY5Y Spectrin IC50
[3] = biological target: T2, Human Calpain 1/NS1 (Homo sapiens, UniProt P07384); assay: Calpain inhibition continuous fluorescence (FRET) assay, Human Calpain 1/NS1; type: biochemical; details: read-out: Human Calpain 1/NS1 IC50
T2 sequence (P07384 1-714): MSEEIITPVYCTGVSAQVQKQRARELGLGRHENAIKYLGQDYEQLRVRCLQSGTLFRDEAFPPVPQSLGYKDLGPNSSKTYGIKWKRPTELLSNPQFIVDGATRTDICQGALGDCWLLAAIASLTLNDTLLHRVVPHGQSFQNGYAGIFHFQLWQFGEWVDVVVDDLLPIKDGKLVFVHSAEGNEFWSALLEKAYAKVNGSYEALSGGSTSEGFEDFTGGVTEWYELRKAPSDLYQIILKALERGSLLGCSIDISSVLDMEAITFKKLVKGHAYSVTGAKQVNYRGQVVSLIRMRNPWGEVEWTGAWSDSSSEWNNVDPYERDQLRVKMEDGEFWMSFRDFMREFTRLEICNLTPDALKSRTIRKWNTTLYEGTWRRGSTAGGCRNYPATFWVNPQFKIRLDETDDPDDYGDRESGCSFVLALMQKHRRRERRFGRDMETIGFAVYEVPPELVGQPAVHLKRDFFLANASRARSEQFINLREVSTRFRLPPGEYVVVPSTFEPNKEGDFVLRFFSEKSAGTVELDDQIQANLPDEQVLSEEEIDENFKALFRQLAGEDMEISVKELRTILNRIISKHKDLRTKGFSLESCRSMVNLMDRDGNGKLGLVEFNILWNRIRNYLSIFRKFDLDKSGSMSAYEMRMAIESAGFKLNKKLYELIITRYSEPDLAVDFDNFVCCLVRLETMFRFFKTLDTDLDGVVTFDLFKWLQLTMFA
T2 sequence (P04632 1-268 partner): T1 sequence (P04632 1-268 partner)
How it was run: as §1

[4] = biological target: T3, Human Calpain 2/NS1 (Homo sapiens, UniProt P17655); assay: Calpain inhibition continuous fluorescence (FRET) assay, Human Calpain 2/NS1; type: biochemical; details: read-out: Human Calpain 2/NS1 IC50
T3 sequence (P17655 1-700): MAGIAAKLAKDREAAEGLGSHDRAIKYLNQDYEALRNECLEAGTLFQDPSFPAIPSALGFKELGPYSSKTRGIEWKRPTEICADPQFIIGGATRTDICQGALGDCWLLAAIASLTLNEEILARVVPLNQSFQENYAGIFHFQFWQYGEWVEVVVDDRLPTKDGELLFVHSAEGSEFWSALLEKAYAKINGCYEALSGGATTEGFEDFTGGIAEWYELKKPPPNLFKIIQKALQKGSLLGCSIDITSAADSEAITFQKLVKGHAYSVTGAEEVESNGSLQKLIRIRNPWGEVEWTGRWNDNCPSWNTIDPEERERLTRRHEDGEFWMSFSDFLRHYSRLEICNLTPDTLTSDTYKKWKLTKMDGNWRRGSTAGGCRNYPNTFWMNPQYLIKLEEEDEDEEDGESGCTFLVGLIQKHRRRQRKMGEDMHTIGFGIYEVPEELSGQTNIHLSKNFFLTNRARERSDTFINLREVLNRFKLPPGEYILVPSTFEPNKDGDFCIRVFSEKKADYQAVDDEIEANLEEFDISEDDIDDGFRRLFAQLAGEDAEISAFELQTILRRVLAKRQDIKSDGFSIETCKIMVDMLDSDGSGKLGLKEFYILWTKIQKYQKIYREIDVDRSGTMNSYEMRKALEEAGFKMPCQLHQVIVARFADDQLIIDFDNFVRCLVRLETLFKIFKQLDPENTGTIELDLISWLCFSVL
T3 sequence (P04632 1-268 partner): T1 sequence (P04632 1-268 partner)
How it was run: as §1

[5] = Homo sapiens, A23187-induced SBDP-150, western blot
[6] = Homo sapiens, Column D, A23187-induced SBDP-150

Row | Compound | IC50 [1] [µM] | IC50 [2, 5] [µM] | IC50 [3] [µM] | IC50 [4] [µM] | IC50 ([2]; A23187-induced SBDP-150, western blot) [µM] | IC50 ([1]; Column C) [µM] | IC50 [2, 6] [µM] | IC50 ([3]; Column A) [µM] | IC50 ([4]; Column B) [µM]
1 | Cc1cc(C(=O)N[C@@H](Cc2ccccc2)C(=O)C(N)=O)n(-c2cccc(CNC(=O)OCc3ccccc3)c2)n1 [Compound 343, Benzyl (S)-(3-(5-((4-amino-3,4-dioxo-1-phenylbutan-2-yl)carbamoyl)-3-methyl-1H-pyrazol-1-yl)benzyl)carbamate] | < 3 | 10 to 25 | < 3 | < 3 |  |  |  |  | 
2 | NC(=O)C(=O)C(Cc1ccccc1)NC(=O)c1cn(C(F)F)nc1-c1cnc2ccccc2c1 (stereo not shown) [Compound 610, N-(4-amino-3,4-dioxo-1-phenylbutan-2-yl)-1-(difluoromethyl)-3-(quinolin-3-yl)-1H-pyrazole-4-carboxamide] | < 3 | < 10 | < 3 | < 3 |  |  |  |  | 
3 | O=C(NC1CC1)C(=O)C(Cc1ccccc1)NC(=O)c1nsnc1-c1ccccc1 (stereo not shown) [Compound 462, N-(4-(cyclopropylamino)-3,4-dioxo-1-phenylbutan-2-yl)-4-phenyl-1,2,5-thiadiazole-3-carboxamide] | < 3 | 10 to 25 | < 3 | < 3 |  |  |  |  | 
4 | C#CCOCc1ccc(-c2nn(C)cc2C(=O)N[C@@H](Cc2ccccc2)C(=O)CF)c(F)c1 [Compound 521, (S)—N-(4-fluoro-3-oxo-1-phenylbutan-2-yl)-3-(2-fluoro-4-((prop-2-yn-1-yloxy)methyl)phenyl)-1-methyl-1H-pyrazole-4-carboxamide] | 3 to 10 | 10 to 25 | < 3 | < 3 |  |  |  |  | 
5 | Cn1cc(C(=O)NC(Cc2ccccc2)C(=O)C(N)=O)c(-c2ccnc3ccccc23)n1 (stereo not shown) [Compound 611, N-(4-amino-3,4-dioxo-1-phenylbutan-2-yl)-1-methyl-3-(quinolin-4-yl)-1H-pyrazole-4-carboxamide] | < 3 | 10 to 25 | < 3 | < 3 |  |  |  |  | 
6 | NC(=O)C(=O)C(Cc1ccccc1)NC(=O)c1nsnc1Cl (stereo not shown) [Compound 364, N-(4-amino-3,4-dioxo-1-phenylbutan-2-yl)-4-chloro-1,2,5-thiadiazole-3-carboxamide] | < 3 | 10 to 25 | < 3 | < 3 |  |  |  |  | 
7 | (S)—N-(4-(((1H-benzo[d]imidazol-5-yl)methyl)amino)-3,4-dioxo-1-phenyl butan-2-yl)-3-methyl-5-phenylisoxazole-4-carboxamide [Compound 493] | 3 to 10 |  | < 3 | < 3 | > 25 |  |  |  | 
8 | Cn1cc(C(=O)NC(Cc2ccccc2)C(=O)C(N)=O)c(Cc2ccccc2)n1 (stereo not shown) [Compound 483, N-(4-amino-3,4-dioxo-1-phenylbutan-2-yl)-3-benzyl-1-methyl-1H-pyrazole-4-carboxamide] | < 3 | > 25 | > 10 | 3 to 10 |  |  |  |  | 
9 | Cc1nc(-c2cccc3c2OCO3)c(C(=O)NC(Cc2ccccc2)C(=O)C(N)=O)o1 (stereo not shown) [Compound 609, N-(4-amino-3,4-dioxo-1-phenylbutan-2-yl)-4-(benzo[d][1,3]dioxol-4-yl)-2-methyloxazole-5-c arboxamide] | < 3 | < 10 | < 3 | < 3 |  |  |  |  | 
10 | Cn1cc(C(=O)NC(Cc2ccccc2)C(=O)C(N)=O)c(-c2ccc(C#N)nc2)n1 (stereo not shown) [Compound 481, N-(4-amino-3,4-dioxo-1-phenylbutan-2-yl)-3-(6-cyanopyridin-3-yl)-1-methyl-1H-pyrazole-4-carboxamide] | < 3 | > 25 | < 3 | < 3 |  |  |  |  | 
11 | Cc1cc(C(=O)N[C@@H](Cc2ccccc2)C(=O)C(N)=O)n(-c2nc3ccccc3s2)n1 [Compound 13, (S)—N-(4-amino-3,4-dioxo-1-phenylbutan-2-yl)-1-(benzo[D]thiazol-2-yl)-3-methyl-1H-pyrazole-5-carboxamide] |  |  |  |  |  | < 3 | > 25 | < 3 | < 3
12 | Cc1cc(C(=O)N[C@@H](Cc2ccccc2)C(=O)C(N)=O)n(-c2ccc(CNC(=O)CCc3ccccc3)cc2)n1 [Compound 155, (S)—N-(4-amino-3,4-dioxo-1-phenylbutan-2-yl)-3-methyl-1-(4-((3-phenylpropanamido)methyl)phenyl)-1H-pyrazole-5-carboxamide] |  |  |  |  |  | < 3 | > 25 | < 3 | < 3
13 | Cc1cc(C(=O)NC(Cc2ccccc2)C(=O)C(N)=O)n(-c2ncccc2C)n1 (stereo not shown) [Compound 345, N-(4-amino-3,4-dioxo-1-phenylbutan-2-yl)-3-methyl-1-(3-methylpyridin-2-yl)-1H-pyrazole-5-carboxamide] | > 10 | > 25 | > 10 | > 10 |  |  |  |  | 
14 | Cc1cc(C(=O)N[C@@H](Cc2ccccc2)C(=O)C(N)=O)n(-c2cccc(CNC(=O)c3ccccc3)c2)n1 [Compound 141, (S)—N-(4-amino-3,4-dioxo-1-phenylbutan-2-yl)-1-(3-(benzamidomethyl)phenyl)-3-methyl-1H-pyrazole-5-carboxamide] |  |  |  |  |  | < 3 | 10 to 25 | < 3 | < 3
15 | O=C[C@H](Cc1ccccc1)NC(=O)c1ccnn1-c1ccccc1 [Compound 2, (S)—N-(1-oxo-3-phenylpropan-2-yl)-1-phenyl-1H-pyrazole-5-carboxamide] |  |  |  |  |  | < 3 | 10 to 25 | < 3 | < 3
16 | NC(=O)C(=O)C(Cc1ccccc1)NC(=O)c1cn(-c2cccc(F)c2)nc1-c1ccccc1 (stereo not shown) [Compound 528, N-(4-amino-3,4-dioxo-1-phenylbutan-2-yl)-1-(3-fluorophenyl)-3-phenyl-1H-pyrazole-4-carb oxamide] | < 3 | > 25 | < 3 | < 3 |  |  |  |  | 
